Test results reported in patent US3954865A, “N-cycloalkyl substituted-10,11-dihydro 5H-dibenzo[a,d] cyclohepten-5-imines” (E. I. Du Pont de Nemours and Company, priority 1974, dated 1976).

Assays:
[1] = test system: uptake of dopamine by the corpus striatum; assay: inhibition of uptake of labelled dopamine by rat corpus striatum homogenate (procedure of Coyle et al); assay type: biochemical; settings: for Ratio Hypothalmus/Striatum: ratio of ID50 values, hypothalamus over striatum
Description: (§1) Many compounds which are active in the central nervous system of mammals appear to inhibit the uptake of catecholamines by mammalian brain tissues. […] The compounds of the invention have the ability of selectively inhibiting the uptake of dopamine by the corpus striatum. This ability was measured by a test procedure following that of Coyle et al supra. Rat brain slices from the corpus striatum and hypothalamus are separately homogenized and incubated with predetermined amounts of labelled norepinephrine or dopamine and a compound of the invention. After a suitable incubation period the amount of labelled catecholamine taken up by the brain homogenate is determined.

[2] = test system: uptake of norepinephrine by the hypothalamus; assay: inhibition of uptake of labelled norepinephrine by rat hypothalamus homogenate (procedure of Coyle et al); assay type: biochemical
Description: as §1

c1ccc2c(c1)CCc1ccccc1C2=NCC1CC1 [Example 1, N-cyclopropylmethyl-10,11-dihydro-5H-dibenzo[a,d]cyclohepten-5-imine]
inhibiting the uptake of dopamine, selectivity in words ([1]; dopamine versus norepinephrine uptake): almost exclusive effect inhibiting the uptake of dopamine
Ratio Hypothalmus/Striatum [1]: 20
inhibiting the uptake of norepinephrine, in words [2]: without significantly inhibiting the uptake of norepinephrine

c1ccc2c(c1)CCc1ccccc1C2=NC1CC1 [Example 2, N-Cyclopropyl-10,11-dihydro-5H-dibenzo[a,d]cyclohepten-5-imine]
Ratio Hypothalmus/Striatum [1]: > 6

Clc1ccc2c(c1)C(=NCC1CC1)c1ccccc1CC2 [Example 4, 3-Chloro-N-cyclopropylmethyl-10,11-dihydro-5H-dibenzocyclohepten-5-imine]
Ratio Hypothalmus/Striatum [1]: 2

CC(C)=C1CC(CN=C2c3ccccc3CCc3ccccc32)C1 (stereo not shown) [Example 5, N-(3-Isopropylidenecyclobutylmethyl)-10,11-dihydro[a,d]cyclohepten-5-imine]
Ratio Hypothalmus/Striatum [1]: 1.25

CC(C)N=C1c2ccccc2CCc2ccccc21 [Isopropyl, reference compound]
Ratio Hypothalmus/Striatum [1]: 0.25
